Data published in US11702546B2, “Near-infrared heptamethine dyes for generation of singlet oxygen” (California Institute of Technology, priority 2018, dated 2023).
Entries after “also recorded” stand apart in the source; their conditions may differ. Each block holds one compound with its values, some of them ahead of it.

Assays:
[1] = Comparative quantum yield experiments (DPBF bleaching vs phenalenone); type: physicochemical; details: chloroform; for percent decrease in DPBF signal at 415 nm: 30 seconds; for relative quantum yield of singlet oxygen generation: 1064 nm, relative to phenalenone, corrected for photon flux
Excerpt: Phenalenone, a highly efficient singlet oxygen generator with a known singlet oxygen quantum yield of 0.97 in chloroform was used to benchmark the efficiency of IR-1061-acridinium singlet oxygen generation in chloroform. A solution of phenalenone at an absorbance of 0.30 at 365 nm was generated that also contained DPBF at an absorbance of approximately 1.0. This solution was irradiated for 30 seconds using a 365 nm variable power LED (3-300 mW, Thor labs) at 30 mW/cm^2. The percent decrease in DPBF signal at 415 nm was calculated, taking into account any background from phenalenone. This was done in triplicate. A similar experiment was then run using IR-1061-acridinium. A solution containing the dye at an absorbance of 0.30 at 1064 and DPBF at an absorbance of approximately 1.0 was irradiated for 30 seconds using a 1064 nm Nd:YAG laser with a power output of 1.8 W/cm^2. The percent decrease in DPBF signal at 415 nm was then calculated, taking into account any background from IR-1061-acridinium. This was also done in triplicate.
The percent decrease attributed to phenalenone was calculated to be 0.53 and the percent decrease attributed to IR-1061-acridinium was calculated to be 0.29. To account for the difference in photon flux at these two wavelengths, the ratio of the photon flux was calculated, where the photon flux was described by the following equation: PF=I*λ/(h*c*Na). PF stands for photon flux, I is the irradiation intensity, λ is the irradiation wavelength, his Planck's constant, c is the speed of light and Na is Avogadro's number. The ratio of the photon flux was simplified to PFR=(IPhe*λPhe)/(IIR*λIr)=(0.03 W/cm^2*365 nm)/(1.8 W/cm^2*1064 nm)=0.006. Considering this difference in photon flux and phenalenone's known quantum yield of singlet oxygen generation of 0.97, this yielded a relative quantum yield of about 0.003, or 0.3%.

[2] = in chloroform, irradiation at 365 nm; cited from earlier work
[3] = Irradiation experiments with singlet oxygen trap DPBF (NIR laser, absorbance readout vs dark control); type: physicochemical; details: for change in DPBF signal after irradiation: 980 nm laser, 1 W cm-2, CDCl3, 30 minutes, relative to dark control
Experimental: (§1) IR-1061 tetrafluoroborate and dry pyridine were purchased from commercial sources and used as supplied. Deuterated chloroform was purchased from commercial sources and filtered through a neutral alumina plug prior to use to neutralize and dry the solvent. Irradiations at 980 nm were performed using a 1 watt/cm^2 infrared diode laser at 980 nm coupled to a PSU-III-FDA power supply. Irradiations at 1064 nm were performed using an Nd:YAG laser at 1.8 W/cm^2. Absorbance spectra were obtained using an Agilent CARY 60 UV-Vis for spectra below 1000 nm, and a Cary 5000 UV-VIS-NIR for spectra above 1000 nm. Mass spectrometry characterization was performed via MALDI using a BRUKER MALDI/TOF Autoflex Speed and a Waters LCT Premier XE Electrospray TOF. 1H NMR spectra were obtained using a Varian 600 MHz Spectrometer.
Dye was dissolved in deuterated solvent at a concentration that would produce an absorbance near 1 at 980 nm. This was calculated using extinction coefficients determined by absorbance measurements of the dye alone. The IR-1061-acridinium irradiation in water was an exception, as the concentration was kept lower to ensure solubility. Dye solution was split into two aliquots and added to two 1 cm by 1 cm quartz cuvettes purchased from Starna. The absorption spectra were taken for both cuvettes (to ensure the pre-irradiation sample looked the same in both cases), and subsequently one cuvette was irradiated while the other was kept in the dark. A stir bar was used to ensure proper mixing during irradiation. After irradiation, the absorbance of both solutions was again evaluated. […] For the 1064 nm irradiation, the dye was dissolved at a slightly higher concentration to an absorbance of approximately 1.5 at 1064 nm and irradiated for 5 minutes. At this point significant photobleaching of the dye was observed, so additional irradiation was not performed.
The freeze-pump-thaw (FPT) experiment was carried out as follows. Dye was dissolved in deuterated chloroform and added to a FPT that apparatus. Three consecutive freeze-pump-thaw cycles were carried out to a pressure of less than […], at which point the solution was transferred under vacuum to the arm of the apparatus containing a fused 1 cm by 1 cm quartz cuvette (Starna). Irradiation and subsequent absorption measurements were carried out in the sealed cuvette.
The pyridine addition reaction was extremely sensitive to water, but gave good conversion using dry pyridine. […] Despite this inconvenience, the slightly impure dye was used as a proof of principle. For initial singlet oxygen generation experiments, the dye was dissolved in CDCl3—the solvent in which it had the highest solubility—and irradiated using a 1 Wcm^−2 980 nm laser in the presence of a singlet oxygen trap, diphenylisobenzofuran (DPBF). DPBF was selected as a trap because it is a standard in the field and because other popular detectors (such as singlet oxygen sensor green, SOSG) led to precipitation of IR-1061-pyridinium over time.

[4] = Stability and solubility observations of the dye; type: physicochemical
NIR absorbance spectrum = type: physicochemical; design: dose or concentration left out as unconfirmed; details: CDCl3
Experimental: as §1

[5] = 980 nm, D2O with DMSO-D6 for solubility
[6] = 1064 nm laser, 1.8 W cm-2, CDCl3, 5 minutes

Structure (SMILES): O=C1C=Cc2cccc3cccc1c23 [phenalenone, reference compound]
percent decrease in DPBF signal at 415 nm ([1]; 365 nm LED at 30 mW/cm2, absorbance 0.30 at 365 nm, triplicate): 0.53
known singlet oxygen quantum yield [2]: 0.97

Structure (SMILES): ClC1=C(/C=C/c2cc(-c3ccccc3)[s+]c(-c3ccccc3)c2)CCC/C1=C\C=C1C=C(c2ccccc2)SC(c2ccccc2)=C1 [IR-1061, reference compound]
change in DPBF signal after irradiation [3]: no significant changes in DPBF signal

solubility after counterion exchange BF4- to BArF- ([4]; compared with BF4- salt): increase in solubility
Structure (SMILES): C(/C=C1\CCCC(/C=C/c2cc(-c3ccccc3)[s+]c(-c3ccccc3)c2)=C1[n+]1c2ccccc2cc2ccccc21)=C1C=C(c2ccccc2)SC(c2ccccc2)=C1 [IR-1061-acridinium BArF]
photosensitization capability after counterion exchange BF4- to BArF- ([3]; 980 nm, CDCl3, compared with tetrafluoroborate salt): marked decrease in photosensitization capability; also recorded: Reactivity was significantly reduced

DPBF degradation rate in water [3, 5]: comparable to those seen in chloroform
photobleaching of the dye in water [3, 5]: high levels of photobleaching
DPBF degradation in polar aprotic solvents ([3]; 980 nm, deuterated polar aprotic solvents such as DMSO): decreased DPBF degradation
bleaching of the dye during irradiation [3, 6]: significant bleaching of the dye
λmax of NIR absorbance (NIR absorbance spectrum): 1078
effect of introduction of protein (BSA) ([4]; BSA added): precipitation of the dye
Structure (SMILES): C(/C=C1\CCCC(/C=C/c2cc(-c3ccccc3)[s+]c(-c3ccccc3)c2)=C1[n+]1c2ccccc2cc2ccccc21)=C1C=C(c2ccccc2)SC(c2ccccc2)=C1 [IR-1061-acridinium]
change in DPBF signal after irradiation [3]: significant DPBF photobleaching was observed only after 30 minutes
singlet oxygen generation in nonpolar solvents ([3]; 980 nm, deuterated nonpolar solvents such as toluene): no singlet oxygen generation was observed
change in DPBF signal, freeze-pump-thawed sample devoid of oxygen ([3]; 980 nm, freeze-pump-thawed CDCl3): no change in DPBF signal
DPBF photobleaching after irradiation [3, 6]: near complete photobleaching of DPBF; also recorded: Rapid bleaching of both the dye and DPBF signal
relative quantum yield of singlet oxygen generation [1]: about 0.003
relative quantum yield of singlet oxygen generation ([1]; approximate): ~0.3%
percent decrease in DPBF signal at 415 nm ([1]; 1064 nm Nd:YAG laser at 1.8 W/cm2, absorbance 0.30 at 1064, triplicate): 0.29

Structure (SMILES): C(/C=C1\CCCC(/C=C/c2cc(-c3ccccc3)[s+]c(-c3ccccc3)c2)=C1[n+]1ccccc1)=C1C=C(c2ccccc2)SC(c2ccccc2)=C1 [IR-1061-pyridinium]
change in DPBF signal after irradiation [3]: significant decrease in the DPBF signal
stability to hydration during purification ([4]; all evaluated purification conditions): too sensitive to isolate in pure form due to hydration
